Results reported in US11702404B2, “GLP-1R modulating compounds” (priority 2019, dated 2023).

Key:
GLP-1R = GLP-1R (Homo sapiens, UniProt P43220); experiment: GLP-1R activation: cAMP increase in CHO cells stably expressing GLP-1R; assay type: cell-based; details: cAMP increase, CHO cells stably expressing GLP-1R, 10 point dose response, 30 minutes incubation; read-out: EC50
[1] = Microsomal stability, human liver microsomes (predicted hepatic clearance); details: predicted from in vitro microsomal stability data

Sequence of GLP-1R (P43220 24-463): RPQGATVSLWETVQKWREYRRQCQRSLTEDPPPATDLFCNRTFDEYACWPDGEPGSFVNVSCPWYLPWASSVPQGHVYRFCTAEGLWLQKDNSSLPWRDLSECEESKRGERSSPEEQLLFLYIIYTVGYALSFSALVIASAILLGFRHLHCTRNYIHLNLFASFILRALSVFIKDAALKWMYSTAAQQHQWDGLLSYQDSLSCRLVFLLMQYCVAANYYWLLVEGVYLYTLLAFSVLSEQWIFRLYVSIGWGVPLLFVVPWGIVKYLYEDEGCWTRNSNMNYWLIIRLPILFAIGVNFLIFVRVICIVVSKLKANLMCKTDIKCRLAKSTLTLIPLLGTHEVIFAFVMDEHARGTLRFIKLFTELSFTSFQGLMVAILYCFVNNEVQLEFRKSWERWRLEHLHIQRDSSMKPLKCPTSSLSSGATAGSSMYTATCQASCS

Compound | EC50 (GLP-1R) [nM] | Predicted Hepatic Clearance (Pred. Cl.) [1] [mL/min/kg]
COCCn1c(Cc2c(F)cc(-c3cccnc3OCc3ccc(C#N)cc3OC)cc2F)nc2ccc(C(=O)O)cc21 [Example 118, 2-(4-(2-((4-cyano-2-methoxybenzyl)oxy)pyridin-3-yl)-2,6-difluorobenzyl)-1-(2-methoxyethyl)-1H-benzo[d]imidazole-6-carboxylic acid] | 6.01 | 12
O=C(O)c1ccc2nc(Cc3cc(F)c(-c4ccnc(OCc5ccc(Cl)cc5F)n4)cc3F)n(CC3(CF)CC3)c2n1 [Example 120, 2-(4-(2-((4-chloro-2-fluorobenzyl)oxy)pyrimidin-4-yl)-2,5-difluorobenzyl)-3-((1-(fluoromethyl)cyclopropyl)methyl)-3H-imidazo[4,5-b]pyridine-5-carboxylic acid] | 1.24 | <1.83
COCCn1c(Cc2ccc(-c3ccc(Cl)c(OCc4ccc(C#N)cc4F)n3)cc2F)nc2ccc(C(=O)O)cc21 [Example 122, 2-(4-(5-chloro-6-((4-cyano-2-fluorobenzyl)oxy)pyridin-2-yl)-2-fluorobenzyl)-1-(2-methoxyethyl)-1H-benzo[d]imidazole-6-carboxylic acid] | 30.6 | <1.83
C[C@]1(Cn2c(Cc3ccc(-c4cccc(OCc5ccc(C#N)cc5F)n4)cc3F)nc3ccc(C(=O)O)cc32)CCO1 [Example 123, (R)-2-(4-(6-((4-cyano-2-fluorobenzyl)oxy)pyridin-2-yl)-2-fluorobenzyl)-1-((2-methyloxetan-2-yl)methyl)-1H-benzo[d]imidazole-6-carboxylic acid] | 3.12 | 5.17
COCCn1c(Cc2ccc(-c3ncc(F)c(OCc4ccc(C#N)cc4F)n3)cc2F)nc2ccc(C(=O)O)cc21 [Example 126, 2-(4-(4-((4-cyano-2-fluorobenzyl)oxy)-5-fluoropyrimidin-2-yl)-2-fluorobenzyl)-1-(2-methoxyethyl)-1H-benzo[d]imidazole-6-carboxylic acid] | 3.7 | 4.67

The next compounds have a lower EC50 (GLP-1R) than those just listed; values first:

EC50 (GLP-1R) [nM] | Predicted Hepatic Clearance (Pred. Cl.) [1] [mL/min/kg] | Compound
0.67 | 3.17 | COCCn1c(Cc2c(F)cc(-c3ncc(F)c(OCc4ccc(C#N)cc4F)n3)c(F)c2F)nc2ccc(C(=O)O)cc21 [Example 124, 2-(4-(4-((4-cyano-2-fluorobenzyl)oxy)-5-fluoropyrimidin-2-yl)-2,3,6-trifluorobenzyl)-1-(2-methoxyethyl)-1H-benzo[d]imidazole-6-carboxylic acid]
0.66 | 2.67 | N#Cc1ccc(COc2nccc(-c3cc(F)c(Cc4nc5ccc(C(=O)O)cc5n4C[C@@H]4CCO4)c(F)c3)n2)c(F)c1 [Example 121, (S)-2-(4-(2-((4-cyano-2-fluorobenzyl)oxy)pyrimidin-4-yl)-2,6-difluorobenzyl)-1-(oxetan-2-ylmethyl)-1H-benzo[d]imidazole-6-carboxylic acid]
0.56 | <1.83 | COc1cc(C#N)ccc1COc1nccc(-c2cc(F)c(Cc3nc4ccc(C(=O)O)nc4n3CC3(CF)CC3)cc2F)n1 [Example 119, 2-(4-(2-((4-cyano-2-methoxybenzyl)oxy)pyrimidin-4-yl)-2,5-difluorobenzyl)-3-((1-(fluoromethyl)cyclopropyl)methyl)-3H-imidazo[4,5-b]pyridine-5-carboxylic acid]
0.34 | 2.58 | N#Cc1ccc(COc2nc(-c3ccc(Cc4nc5ccc(C(=O)O)cc5n4C[C@@H]4CCO4)cc3F)ccc2F)c(F)c1 [Example 125, (S)-2-(4-(6-((4-cyano-2-fluorobenzyl)oxy)-5-fluoropyridin-2-yl)-3-fluorobenzyl)-1-(oxetan-2-ylmethyl)-1H-benzo[d]imidazole-6-carboxylic acid]
